In patent US9814714B2, “Kinase modulation, and indications therefor” (Plexxikon Inc., priority 2015, dated 2017):
Like-named read-outs stand apart in the source and are kept apart here.

Columns and labels:
CRAF = target: T1, CRAF (Homo sapiens, UniProt P04049, Y340D/Y341D); assay: In vitro RAF kinase biochemical assay, activated CRAF
T1 construct: GST (N); purchased Millipore 14-352; host or cells: insect cells
Method: (§1) 1) Test compounds in DMSO were serially diluted and plated into 384-well assay plates at 1 μL/well.
(§2) 2) Added were 15 μL/well of RAF enzyme and biotinylated-MEK1 substrate in kinase buffer.
(§3) 3) Added were 4 μL of ATP (500 μM) in kinase buffer.
(§4) 5) After a brief spin down, the plate was incubated at about room temperature for 40-50 minutes. 6) Added was 5 μL of Stop buffer at final EDTA 20 mM; anti-phospho-MEK1 1:2,500; donor/acceptor beads 3 μg/mL. 7) After brief spin down, the plate was incubated at room temperature for about 3 hours. 8) The plate was read on the Envision multilabel plate reader (Perkin Elmer). […] 2. Results

[1] = system: cell model that expresses the same HRAS mutation prevalent in squamous cell tumors; assay: HRAS mutant cell model: growth and MAPK pathway response gene expression; assay type: cell-based
Text: In a cell model that expresses the same HRAS mutation prevalent in squamous cell tumors from patients treated with RAF inhibitors, first-generation RAF inhibitors stimulate the in vitro and in vivo growth of the cells and induce the expression of MAPK pathway response genes including EGFR ligands. […] Based on these advantageous properties of the compound of either Formula I or Formula II, enhanced tolerability and, in turn, increased drug dosage may be obtained.

[2] = system: phospho-ERK1/2 (T202/Y204, pERK) in RAS mutant and BRAF^V600E cell lines; assay: pERK screen in cell line panel: ERK pathway inhibition index (EPII); assay type: cell-based; details: for pERK activation in RAS mutant cell lines (in words): at the concentrations tested; for ERK pathway inhibition index (EPII): ratio between mean pERK activation EC50 (B9, IPC-298, HCT116) and mean pERK inhibition IC50 (A375, COLO829)
Method: Phospho-ERK AlphaScreen® assay: The degree of ERK phosphorylation was determined using an AlphaScreen® assay where an increase in ERK1/2 phosphorylation at Thr202/Tyr204 brought the donor and acceptor AlphaScreen® beads into close proximity, generating a signal for quantification. To determine the effects of compound treatment on phosphorylation of ERK1/2, cells were plated in a 96-well plate and treated with an 8-point titration of compound for one hour at 37° C. before lysis. To detect pERK, cell lysates were incubated with streptavidin-coated AlphaScreen® donor beads, anti-mouse IgG AlphaScreen® acceptor beads, a biotinylated anti-ERK1/2 rabbit antibody, and a mouse antibody that recognizes ERK1/2 only when it is phosphorylated on Thr202 and Tyr204. The biotinylated ERK1/2 antibody binds to both the streptavidin-coated AlphaScreen® donor beads and to ERK1/2 (regardless of its phosphorylation state), and the phospho-ERK1/2 antibody binds to the acceptor beads and to ERK1/2 that is phosphorylated at Thr202/Tyr204. An increase in ERK1/2 phosphorylation at Thr202/Tyr204 brings the donor and acceptor AlphaScreen® beads into close proximity, generating a signal that can be quantified on an EnVision reader (Perkin Elmer).

BRAF = BRAF (Homo sapiens, UniProt P15056); assay: In vitro RAF kinase biochemical assay, wild-type BRAF
Sequence of BRAF (P15056 416-766): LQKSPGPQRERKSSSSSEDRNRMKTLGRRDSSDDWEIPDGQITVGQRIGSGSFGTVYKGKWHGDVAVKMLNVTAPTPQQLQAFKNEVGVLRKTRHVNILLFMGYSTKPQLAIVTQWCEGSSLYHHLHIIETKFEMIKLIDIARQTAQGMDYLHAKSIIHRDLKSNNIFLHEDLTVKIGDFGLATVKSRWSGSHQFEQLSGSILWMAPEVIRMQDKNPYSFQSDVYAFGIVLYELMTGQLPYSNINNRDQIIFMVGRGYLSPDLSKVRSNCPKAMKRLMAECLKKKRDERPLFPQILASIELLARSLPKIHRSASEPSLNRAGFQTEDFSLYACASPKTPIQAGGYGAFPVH
Method: (§5) The in vitro RAF kinase activities were determined by measuring phosphorylation of a biotinylated substrate peptide as described in Tsai et al 2008. Formula II was tested against a panel of 287 kinases at concentrations of 1 μM in duplicate. […] The 287 kinases represent all major branches of the kinome phylogenetic tree. The inhibition screen of 287 kinases was carried out under contract as complementary panels at Invitrogen (Life Technologies, WI, USA) SelectScreen™ profiling service, DiscoverX (CA, USA) KINOMEScan™ service, and Reaction Biology Corporation (PA, USA) Kinase HotSpot^SM service.
BRAF, residues L416 through H766 fused at the N-terminus with a GST tag, was produced in insect cells, and BRAF was purchased from Millipore (Catalog #14-530).
as §1, §2, §3, §4

BRAF^V600E = BRAF^V600E (Homo sapiens, UniProt P15056, V600E); assay: In vitro RAF kinase biochemical assay, BRAF V600E
Sequence of BRAF^V600E (P15056 448-723 V600E): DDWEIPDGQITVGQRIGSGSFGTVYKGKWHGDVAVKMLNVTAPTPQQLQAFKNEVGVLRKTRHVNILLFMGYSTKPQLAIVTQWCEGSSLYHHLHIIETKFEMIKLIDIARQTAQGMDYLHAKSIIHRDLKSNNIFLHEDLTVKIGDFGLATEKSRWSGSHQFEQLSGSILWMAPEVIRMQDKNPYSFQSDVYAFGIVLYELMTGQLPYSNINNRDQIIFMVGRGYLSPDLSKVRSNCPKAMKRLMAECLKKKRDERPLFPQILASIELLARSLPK
Method: as §5
BRAF proteins were produced in insect cells at Plexxikon Inc. as N-terminally His-tagged fragments encompassing the kinase domain.
as §1, §2, §3, §4

[3] = system: pMEK in B9 cells (HRAS-Q61L); assay: Phospho-MEK AlphaScreen assay, pMEK activation in B9; assay type: cell-based, murine; details: Mus musculus
Method: (§6) Using AlphaScreen® technology, the ability of Formula I to affect the phosphorylation of ERK and MEK in the cells was measured quantitatively. Following treatment with compound, the cells were lysed, and a sample of the lysate was transferred to an assay plate. The lysate was mixed with antibodies directed against total ERK/MEK, antibodies that recognize specific phosphorylation sites on ERK/MEK, AlphaScreen® anti-mouse IgG Acceptor beads, and Streptavidin Donor beads. Upon excitation of the donor beads with laser light at 680 nm, singlet oxygen was produced. This singlet oxygen was rapidly quenched, unless the AlphaScreen® Acceptor beads were in close proximity, in which case a proximity signal can be measured at 580 nm. In the presence of phosphorylated ERK/MEK, there is a very strong proximity signal. BRAF-V600 inhibitors affect a decrease in this proximity signal in cells expressing BRAF-V600E (e.g. A375) through a decrease in phosphorylation of the BRAF effectors ERK and MEK.
(§7) 1. One day before the assay, 50,000 cells were plated in each well of a 96-well tissue-culture-treated plate (Corning #3610) in a 50 μL volume. Cells were incubated at 37° C. overnight.
(§8) 2. Compounds were diluted in DMSO to 500× final concentration. Each compound was plated as an 8-point titration, using 1:3 dilutions in DMSO. The maximum concentration was about 5 mM.
3. […]

[4] = system: pMEK in IPC-298 cells (NRAS-Q61L); assay: Phospho-MEK AlphaScreen assay, pMEK activation in IPC-298; assay type: cell-based; details: Homo sapiens
Method: as §6, §7, §8
3. […]

[5] = system: pMEK in HCT116 cells (KRAS-G13D); assay: Phospho-MEK AlphaScreen assay, pMEK activation in HCT116; assay type: cell-based; details: Homo sapiens, HCT-116
Method: as §6, §7, §8
3. […]

[6] = Table 1, average of more than 4 experiments
[7] = Table 1, average of more than 4 experiments, read-out: Biochemical IC50 BRAF^V600E

T1 sequence (P04049 307-648 Y340D/Y341D): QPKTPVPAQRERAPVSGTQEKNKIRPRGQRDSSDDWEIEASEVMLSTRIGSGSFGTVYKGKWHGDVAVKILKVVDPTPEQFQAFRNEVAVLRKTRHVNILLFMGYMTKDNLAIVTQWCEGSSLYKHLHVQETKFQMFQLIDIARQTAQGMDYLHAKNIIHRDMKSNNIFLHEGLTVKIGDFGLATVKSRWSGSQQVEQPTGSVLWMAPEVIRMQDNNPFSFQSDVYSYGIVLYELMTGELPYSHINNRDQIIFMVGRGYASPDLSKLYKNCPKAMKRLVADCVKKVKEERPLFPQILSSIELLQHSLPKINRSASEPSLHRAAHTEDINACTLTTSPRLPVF

SMILES	IC50 (CRAF; [6])	Stimulation of in vitro and in vivo growth and induction of MAPK pathway response genes including EGFR ligands (in words) [1]	pERK activation in RAS mutant cell lines (in words) [2]	ERK pathway inhibition index (EPII) [2]	IC50 (BRAF; [6])	IC50 against mutated BRAF kinases including BRAFV600E (in words) (BRAF^V600E)	IC50 (BRAF^V600E; [7])	EC50 [3]	EC50 [4]	EC50 [5]	IC50 (CRAF; Table 3, ATP 100 μM)	IC50 (BRAF; Table 3, ATP 100 μM)	IC50 (BRAF^V600E; Table 3, ATP 100 μM, read-out: Biochemical IC50 BRAF_V600E)
CCN(C)S(=O)(=O)Nc1ccc(F)c(C(=O)c2c[nH]c3ncc(-c4cnc(C5CC5)nc4)cc23)c1F [Formula II, 5-(2-cyclopropylpyrimidin-5-yl)-3-[3-[[ethyl(methyl)sulfamoyl]amino]-2,6-difluoro-benzoyl]-1H-pyrrolo[2,3-b]pyridine]	0.023 µM	no such effect	essentially no pERK activation	>50,000	0.014 µM	single digit	0.0038 µM	–	–	–	–	–	–
CCCS(=O)(=O)Nc1ccc(F)c(C(=O)c2c[nH]c3ncc(-c4ccc(Cl)cc4)cc23)c1F [Vemurafenib, vemurafenib, reference compound]	–	–	–	–	–	–	–	0.588 µM	1.01 µM	0.769 µM	–	–	–
O=C(c1c(F)ccc(NS(=O)(=O)N2CC[C@@H](F)C2)c1F)c1c[nH]c2ncc(-c3cnc(C4CC4)nc3)cc12 [Formula I, (3R)—N-[3-[5-(2-cyclopropylpyrimidin-5-yl)-1H-pyrrolo[2,3-b]pyridine-3-carbonyl]-2,4-difluorophenyl]-3-fluoropyrrolidine-1-sulfonamide]	0.091 µM	no such effect	essentially no pERK activation	>10,000	0.14 µM	single digit	0.0042 µM	10 µM	10 µM	10 µM	0.0226 µM	0.0143 µM	0.0044 µM
